Data from US20230114728A1 (Venatorx Pharmaceuticals, Inc., priority 2019, published 2023).
≈ marks a conversion by molar mass, not a printed value.

What was measured:
[1] = target: T1, E. coli K12 PBP3 (Escherichia coli, UniProt P0AD68); test: biochemical; type: binding
T1 construct: made in house
Method in brief: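 Fluorescence polarization (ex 490/em 520 nm) competition of inhibitors against Bocillin-FL at 0.1 μM, read up to 60 min. Final PBP levels: E. coli PBP3 1.5 μM; A. baumannii PBP2 2.5 μM, PBP3 0.2 μM in Tris pH 8.0/NaCl/glycerol/Tween 20; N. gonorrhoeae PBP2 […] in Hepes pH 8.0/NaCl/glycerol. EC50 = concentration halving PBP-bound Bocillin-FL.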

[2] = target: T2, P. aeruginosa PBP3 (Pseudomonas aeruginosa, UniProt G3XD46); test: Bocillin-FL fluorescence polarization competition binding assay, P. aeruginosa PBP3; conditions: fluorescence polarization competition binding assay using Bocillin-FL
T2 construct: made in house
T2 sequence (G3XD46 whole entry): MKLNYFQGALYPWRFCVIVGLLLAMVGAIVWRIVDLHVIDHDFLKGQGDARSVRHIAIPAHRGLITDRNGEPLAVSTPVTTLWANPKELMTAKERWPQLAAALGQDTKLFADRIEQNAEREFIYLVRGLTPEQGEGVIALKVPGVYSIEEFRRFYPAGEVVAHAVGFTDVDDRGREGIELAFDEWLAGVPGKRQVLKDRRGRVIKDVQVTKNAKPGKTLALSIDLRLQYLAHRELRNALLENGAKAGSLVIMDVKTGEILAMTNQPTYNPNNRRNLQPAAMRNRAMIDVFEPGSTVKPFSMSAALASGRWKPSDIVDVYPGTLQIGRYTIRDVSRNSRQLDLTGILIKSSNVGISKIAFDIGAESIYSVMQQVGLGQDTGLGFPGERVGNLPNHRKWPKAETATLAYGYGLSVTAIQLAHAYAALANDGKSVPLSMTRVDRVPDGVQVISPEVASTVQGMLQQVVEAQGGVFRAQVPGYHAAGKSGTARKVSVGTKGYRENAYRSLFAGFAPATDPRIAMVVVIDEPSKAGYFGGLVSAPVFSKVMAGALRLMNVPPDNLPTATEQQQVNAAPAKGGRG
Method in brief: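 Binding of boronic acid inhibitors to purified Pseudomonas aeruginosa (PA01) PBP3 was measured by fluorescence polarization competition with Bocillin-FL, a fluorescent penicillin V. Reactions of 80 μl contained 0.75 μM PBP3 and 0.1 μM Bocillin-FL in 50 mM Hepes (pH 8.0), 300 mM NaCl and 5% (v/v) glycerol, in black 384-well plates. FP (Excitation 490 nm, Emission 520 nm) was read for up to 60 minutes. EC50 is the concentration that halves PBP-bound Bocillin-FL.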

[3] = tested on: A. baumannii ATCC 19606; test: Broth microdilution MIC in CAMHB; type: cell-based; conditions: Acinetobacter baumannii, ATCC19606; MHB; read-out: Minimum Inhibitory Concentration, A. baumannii ATCC 19606
Method in brief: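 Per CLSI broth microdilution, colonies were grown 3-5 h at 37° C in cation-adjusted Mueller Hinton broth, then diluted to a starting inoculum of 2-8×10^5 CFU/mL against 2-fold serial compound dilutions. Plates were incubated 16-20 h at 37° C, and MIC was read visually as the lowest concentration with no growth.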

[4] = tested on: E. coli ATCC 25922; test: Broth microdilution MIC in CAMHB; type: cell-based; conditions: Escherichia coli, ATCC25922; E. coli ATCC 25922; MHB; read-out: Minimum Inhibitory Concentration, E. coli 25922
Method in brief: (§1)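 Colonies from cation-adjusted Mueller Hinton agar are grown in broth (3-5 h, 37° C), adjusted by OD600, and added at 2-8×10^5 CFU/mL to 2-fold compound dilutions. After 16-20 h at 37° C, the lowest concentration without growth is taken as MIC.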

[5] = tested on: K. pneumoniae 848844 producing SHV-11 and KPC-2; test: Broth microdilution MIC in CAMHB; type: cell-based; conditions: Klebsiella pneumoniae, read-out: Minimum Inhibitory Concentration, K. pneumoniae 848844
Method in brief: as §1

[6] = tested on: K. pneumoniae SI-117 producing VIM-1; test: Broth microdilution MIC in CAMHB; type: cell-based; conditions: Klebsiella pneumoniae, read-out: Minimum Inhibitory Concentration, K. pneumoniae SI-117
Method in brief: as §1

[7] = tested on: P. aeruginosa (ΔmexAB-oprM); test: Broth microdilution MIC in CAMHB; type: cell-based; conditions: Pseudomonas aeruginosa, read-out: Minimum Inhibitory Concentration, P. aeruginosa ΔmexAB-OprM
Method in brief: as §1

[8] = tested on: P. aeruginosa ATCC 27853; test: Broth microdilution MIC in CAMHB; type: cell-based; conditions: Pseudomonas aeruginosa, ATCC27853; MHB; read-out: Minimum Inhibitory Concentration, P. aeruginosa ATCC 27853
Method in brief: as §1

[9] = tested on: P. aeruginosa ATCC 35151; test: Broth microdilution MIC in CAMHB; type: cell-based; conditions: Pseudomonas aeruginosa, ATCC35151; MHB; hyper-permeable strain; read-out: Minimum Inhibitory Concentration, P. aeruginosa ATCC 35151
Method in brief: as §1

T1 sequence (P0AD68 1-577): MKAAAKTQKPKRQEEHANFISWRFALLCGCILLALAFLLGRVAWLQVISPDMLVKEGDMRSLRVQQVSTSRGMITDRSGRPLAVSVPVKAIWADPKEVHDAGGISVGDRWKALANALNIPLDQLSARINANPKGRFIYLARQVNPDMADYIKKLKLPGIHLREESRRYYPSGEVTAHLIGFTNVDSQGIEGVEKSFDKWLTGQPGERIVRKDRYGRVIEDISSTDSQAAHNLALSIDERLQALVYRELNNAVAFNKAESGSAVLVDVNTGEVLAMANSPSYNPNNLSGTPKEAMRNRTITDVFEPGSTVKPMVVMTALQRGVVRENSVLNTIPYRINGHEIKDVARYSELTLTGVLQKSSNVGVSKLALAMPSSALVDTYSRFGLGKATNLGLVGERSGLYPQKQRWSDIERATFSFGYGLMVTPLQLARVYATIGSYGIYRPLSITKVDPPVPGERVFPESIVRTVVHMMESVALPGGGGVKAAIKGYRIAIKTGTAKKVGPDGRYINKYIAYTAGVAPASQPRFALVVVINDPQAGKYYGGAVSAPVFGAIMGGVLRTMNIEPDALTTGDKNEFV

## Nc1nc(C(NC(=O)N2CCN(CCNC(=O)c3ccc(O)c(O)c3Cl)C(=O)C2=O)C(=O)N[C@H]2Cc3ccc(F)c(C(=O)O)c3OB2O)c(F)s1 (stereo partly drawn) [Example 4, (3R)-3-(2-(2-amino-5-fluorothiazol-4-yl)-2-(4-(2-(2-chloro-3,4-dihydroxybenzamido)ethyl)-2,3-dioxopiperazine-1-carboxamido)acetamido)-7-fluoro-2-hydroxy-3,4-dihydro-2H-benzo[e][1,2]oxaborinine-8-carboxylic acid]
[1]
  EC50: < 30 µM
[2]
  P. aeruginosa PBP3 Potency: D (D represents a potency <10 μM)

## CCN1CCN(C(=O)NC(C(=O)N[C@H]2Cc3ccc(F)c(C(=O)O)c3OB2O)c2ncc(C(=O)O)cc2F)C(=O)C1=O (stereo partly drawn) [Example 33, 6-(2-(((R)-8-carboxy-7-fluoro-2-hydroxy-3,4-dihydro-2H-benzo[e][1,2]oxaborinin-3-yl)amino)-1-(4-ethyl-2,3-dioxopiperazine-1-carboxamido)-2-oxoethyl)-5-fluoronicotinic acid]
[2]
  P. aeruginosa PBP3 Potency: D (D represents a potency <10 μM)
[3]
  MIC: > 128 µg/mL
[4]
  MIC: > 128 µg/mL
[5]
  MIC: > 128 µg/mL
[6]
  MIC: > 128 µg/mL
[7]
  MIC: 32 to 64 µg/mL (≈ 54.3 to 109 µM)
[8]
  MIC: > 128 µg/mL
[9]
  MIC: 0.5 to 1 µg/mL (≈ 0.849 to 1.7 µM)

## CCN1CCN(C(=O)N[C@@H](C(=O)N[C@H]2Cc3cccc(C(=O)O)c3OB2O)c2c(O)cc(O)cc2F)C(=O)C1=O (single isomer, unassigned) [Example 182]
[1]
  EC50: < 30 µM
[3]
  MIC: 32 to 64 µg/mL (≈ 57.3 to 115 µM)
[4]
  MIC: 8 to 16 µg/mL (≈ 14.3 to 28.7 µM)
[5]
  MIC: 32 to 64 µg/mL (≈ 57.3 to 115 µM)
[6]
  MIC: 32 to 64 µg/mL (≈ 57.3 to 115 µM)
[7]
  MIC: 8 to 16 µg/mL (≈ 14.3 to 28.7 µM)
[8]
  MIC: > 128 µg/mL
[9]
  MIC: 2 to 4 µg/mL (≈ 3.58 to 7.16 µM)

## CCN1CCN(C(=O)N[C@@H](C(=O)N[C@H]2Cc3ccc(F)c(C(=O)O)c3OB2O)c2ccc(O)c(O)c2)C(=O)C1=O [Example 211, (R)-3-((R)-2-(3,4-dihydroxyphenyl)-2-(4-ethyl-2,3-dioxopiperazine-1-carboxamido)acetamido)-7-fluoro-2-hydroxy-3,4-dihydro-2H-benzo[e][1,2]oxaborinine-8-carboxylic acid]
[1]
  EC50: < 30 µM
[2]
  P. aeruginosa PBP3 Potency: D (D represents a potency <10 μM)

## CCN1CCN(C(=O)N[C@H](C(=O)N[C@H]2Cc3ccc(F)c(C(=O)O)c3OB2O)c2ccc(O)c(O)c2)C(=O)C1=O [Example 210, (R)-3-((S)-2-(3,4-dihydroxyphenyl)-2-(4-ethyl-2,3-dioxopiperazine-1-carboxamido)acetamido)-7-fluoro-2-hydroxy-3,4-dihydro-2H-benzo[e][1,2]oxaborinine-8-carboxylic acid]
[1]
  EC50: > 500 µM

## O=C(NCCCN1CCN(C(=O)NC(C(=O)N[C@H]2Cc3cccc(C(=O)O)c3OB2O)c2ncc(O)cc2F)C(=O)C1=O)c1ccc(O)c(O)c1Cl (stereo partly drawn) [Example 1, (3R)-3-(2-(4-(3-(2-chloro-3,4-dihydroxybenzamido)propyl)-2,3-dioxopiperazine-1-carboxamido)-2-(3-fluoro-5-hydroxypyridin-2-yl)acetamido)-2-hydroxy-3,4-dihydro-2H-benzo[e][1,2]oxaborinine-8-carboxylic acid]
[1]
  EC50: < 30 µM
[2]
  P. aeruginosa PBP3 Potency: D (D represents a potency <10 μM)
[4]
  MIC: > 128 µg/mL
[5]
  MIC: 32 to 64 µg/mL (≈ 43.1 to 86.2 µM)
[6]
  MIC: 32 to 64 µg/mL (≈ 43.1 to 86.2 µM)

## CS(=O)(=O)N1CCN(C(=O)NC(C(=O)N[C@H]2Cc3ccc(F)c(C(=O)O)c3OB2O)c2c(Cl)cc(O)c(O)c2F)C1=O (stereo partly drawn) [Example 208, (3R)-3-(2-(6-chloro-2-fluoro-3,4-dihydroxyphenyl)-2-(3-(methylsulfonyl)-2-oxoimidazolidine-1-carboxamido)acetamido)-7-fluoro-2-hydroxy-3,4-dihydro-2H-benzo[e][1,2]oxaborinine-8-carboxylic acid]
[1]
  EC50: < 30 µM
[2]
  P. aeruginosa PBP3 Potency: D (D represents a potency <10 μM)

## C[C@H]1CN(CCNC(=O)c2ccc(O)c(O)c2Cl)C(=O)C(=O)N1C(=O)NC(C(=O)N[C@H]1Cc2cccc(C(=O)O)c2OB1O)c1ncc(O)cc1F (stereo partly drawn) [Example 2, (3R)-3-(2-((S)-4-(2-(2-chloro-3,4-dihydroxybenzamido)ethyl)-6-methyl-2,3-dioxopiperazine-1-carboxamido)-2-(3-fluoro-5-hydroxypyridin-2-yl)acetamido)-2-hydroxy-3,4-dihydro-2H-benzo[e][1,2]oxaborinine-8-carboxylic acid]
[1]
  EC50: < 30 µM
[2]
  P. aeruginosa PBP3 Potency: D (D represents a potency <10 μM)
[4]
  MIC: 8 to 16 µg/mL (≈ 10.8 to 21.5 µM)
[5]
  MIC: 8 to 16 µg/mL (≈ 10.8 to 21.5 µM)
[6]
  MIC: 8 to 16 µg/mL (≈ 10.8 to 21.5 µM)

## Nc1nc(/C(=N/OC[C@H](NC(=O)c2ccc(O)c(O)c2Cl)C(=O)O)C(=O)N[C@H]2Cc3cccc(C(=O)O)c3OB2O)cs1 [Example 6, (R)-3-((Z)-2-(2-aminothiazol-4-yl)-2-(((S)-2-carboxy-2-(2-chloro-3,4-dihydroxybenzamido)ethoxy)imino)acetamido)-2-hydroxy-3,4-dihydro-2H-benzo[e][1,2]oxaborinine-8-carboxylic acid]
[1]
  EC50: 30 to 500 µM
[2]
  P. aeruginosa PBP3 Potency: D (D represents a potency <10 μM)

## CCN1CCN(C(=O)N[C@@H](C(=O)N[C@H]2Cc3ccc(F)c(C(=O)O)c3OB2O)c2c(Cl)cc(O)c(O)c2F)C(=O)C1=O (single isomer, unassigned) [Example 207]
[1]
  EC50: < 30 µM
[2]
  P. aeruginosa PBP3 Potency: D (D represents a potency <10 μM)

## O=C(NCCN1CCN(C(=O)NC(C(=O)N[C@H]2Cc3ccc(F)c(C(=O)O)c3OB2O)c2ncc(O)cc2F)C(=O)C1=O)c1c(F)cc(O)c(O)c1Cl (stereo partly drawn) [Example 5, (3R)-3-(2-(4-(2-(2-chloro-6-fluoro-3,4-dihydroxybenzamido)ethyl)-2,3-dioxopiperazine-1-carboxamido)-2-(3-fluoro-5-hydroxypyridin-2-yl)acetamido)-7-fluoro-2-hydroxy-3,4-dihydro-2H-benzo[e][1,2]oxaborinine-8-carboxylic acid]
[1]
  EC50: < 30 µM
[2]
  P. aeruginosa PBP3 Potency: D (D represents a potency <10 μM)

## CCN1CCN(C(=O)N[C@@H](C(=O)N[C@H]2Cc3cc(Cl)c(F)c(C(=O)O)c3OB2O)c2c(F)cc(O)c(O)c2Cl)C(=O)C1=O [Example 191, (R)-6-chloro-3-((R)-2-(2-chloro-6-fluoro-3,4-dihydroxyphenyl)-2-(4-ethyl-2,3-dioxopiperazine-1-carboxamido)acetamido)-7-fluoro-2-hydroxy-3,4-dihydro-2H-benzo[e][1,2]oxaborinine-8-carboxylic acid]
[1]
  EC50: < 30 µM
[2]
  P. aeruginosa PBP3 Potency: D (D represents a potency <10 μM)

## NCCN1CCN(C(=O)N[C@@H](C(=O)N[C@H]2Cc3ccc(F)c(C(=O)O)c3OB2O)c2c(F)c(F)c(O)c(O)c2Cl)C(=O)C1=O [Example 226, (R)-3-((R)-2-(4-(2-aminoethyl)-2,3-dioxopiperazine-1-carboxamido)-2-(2-chloro-5,6-difluoro-3,4-dihydroxyphenyl)acetamido)-7-fluoro-2-hydroxy-3,4-dihydro-2H-benzo[e][1,2]oxaborinine-8-carboxylic acid]
[2]
  P. aeruginosa PBP3 Potency: B (B represents a potency between 30 μM and 500 μM inclusive)

## O=C(NCCCN1CCN(C(=O)NC(C(=O)N[C@H]2Cc3ccc(F)c(C(=O)O)c3OB2O)c2ncc(O)cc2F)C(=O)C1=O)c1ccc(O)c(O)c1Cl (stereo partly drawn) [Example 3, (3R)-3-(2-(4-(3-(2-chloro-3,4-dihydroxybenzamido)propyl)-2,3-dioxopiperazine-1-carboxamido)-2-(3-fluoro-5-hydroxypyridin-2-yl)acetamido)-7-fluoro-2-hydroxy-3,4-dihydro-2H-benzo[e][1,2]oxaborinine-8-carboxylic acid]
[1]
  EC50: < 30 µM
[2]
  P. aeruginosa PBP3 Potency: D (D represents a potency <10 μM)
[4]
  MIC: > 128 µg/mL
[5]
  MIC: 32 to 64 µg/mL (≈ 42.1 to 84.1 µM)
[6]
  MIC: > 128 µg/mL

## NCCCN1CCN(C(=O)N[C@@H](C(=O)N[C@H]2Cc3cc(Cl)c(F)c(C(=O)O)c3OB2O)c2c(F)cc(O)c(O)c2Cl)C(=O)C1=O [Example 190, (R)-3-((R)-2-(4-(3-aminopropyl)-2,3-dioxopiperazine-1-carboxamido)-2-(2-chloro-6-fluoro-3,4-dihydroxyphenyl)acetamido)-6-chloro-7-fluoro-2-hydroxy-3,4-dihydro-2H-benzo[e][1,2]oxaborinine-8-carboxylic acid]
[1]
  EC50: < 30 µM
[2]
  P. aeruginosa PBP3 Potency: D (D represents a potency <10 μM)
